Where “and” joins values, the source holds several entries; their conditions need not be identical. Identical values can stand only once.

One data set in a line: Solubility of the obtained compound in chloroform. Type of data set: physicochemical. As to conditions: solvent chloroform.
“Di-triisopropylsilylacetylene-substituted dinaphthothienothiophene [di-TIPS-substituted DNTT]” registered a solubility in chloroform of 0.2 wt %. Take `CCCCCCCCCCc1c2ccccc2cc2sc3c(sc4cc5ccccc5c(CCCCCCCCCC)c43)c12` [di-decane-substituted DNTT]: the solubility in chloroform is 0.05 wt %.

As for `CCCCCCCCC#Cc1c2ccccc2cc2sc3c(sc4cc5ccccc5c(C#CCCCCCCCC)c43)c12` [di-1-dysine-substituted DNTT, Di-1-dysine-substituted dinaphthothienothiophene], the solubility in chloroform is 2.3 wt %. Same read-out and setting: in the case of `C[Si](C)(C)C#Cc1c2ccccc2cc2sc3c(sc4cc5ccccc5c(C#C[Si](C)(C)C)c43)c12` [Di-trimethylsilylacetylene-substituted DNTT] it was 0.05 wt %.

In turn, “Di-triisopropylsilylethane-substituted DNTT” returned a solubility in chloroform of 0.51 wt %. For the molecule `CC[Si](C#Cc1c2ccccc2cc2sc3c(sc4cc5ccccc5c(C#C[Si](CC)(CC)CC)c43)c12)(CC)CC` [Di-triethylsilylacetylene-substituted DNTT], the solubility in chloroform was 0.10 wt % and 0.13 wt %.

For the molecule `CCCCCCCCCCCCC#Cc1c2ccccc2cc2sc3c(sc4cc5ccccc5c(C#CCCCCCCCCCCCC)c43)c12` [di-1-tetradysine-substituted DNTT, di-1-tetradecyne-substituted DNTT], the solubility in chloroform was 6.5 wt %.

Still in this data set, the particulars now being: solvent chloroform; DNTT used as raw material.
For `c1ccc2cc3c(cc2c1)sc1c2cc4ccccc4cc2sc31` [DNTT, Dinaphthothienothiophene, reference compound], the “solubility in chloroform (in words)” value is given as “substantially not dissolved”.

The data set is the same for the next values; noted with them: solvent chloroform; listed as di-1-tetradesyne-substituted DNTT.
Regarding `CCCCCCCCCCCCC#Cc1c2ccccc2cc2sc3c(sc4cc5ccccc5c(C#CCCCCCCCCCCCC)c43)c12` [di-1-tetradysine-substituted DNTT, di-1-tetradecyne-substituted DNTT], the solubility in chloroform is listed as 1.67 wt %.

These data come from patent publication US8829202B2, “Condensed polycyclic aromatic compound, aromatic polymer, and method for synthesizing aromatic compound” (Teijin Limited, priority 2011, dated 2014).
